Reference: patent publication US4599424A, “5-substituted thiadiazole ureas and their use as herbicides” (priority 1979, dated 1986)

Tests used:
Cotton (CT) [1] = test: Post-emergence herbicide test, cotton; format: in vivo, Gossypium hirsutum var. DPL smooth leaf; settings: two weeks
Protocol: (§1) Cotton (CT)--Gossypium hirsutum var. DPL smooth leaf
(§2) All crop and weed species were planted individually in 3" plastic pots containing potting soil. Four seeds each of corn, cotton, and snapbeans were seeded to a depth equal to the diameter of the seed. All other species were surface seeded and sprinkled with screened soil in an amount sufficient to cover the seed. Immediately after planting, all pots were watered by sub-irrigation in greenhouse trays. Pots for the pre-emergence phase were seeded one day before treatment.
(§3) Planting dates for the post-emergence phase were varied so that all seedlings would reach the desired stage of development simultaneously. The proper stage of seedling development for treatment in the post-emergence phase is as follows:
cotton: first true leaf 1" in length; expanded cotyledons.
(§4) Spray hood constants required to deliver the above volume are as follows:
(§5) Formulations for spray applications were prepared in 50 ml volumes with the following three components:
(§6) Formulations for the 4 lbs/acre rate were prepared by adjusting the amount of active ingredient accordingly.
(§7) Spray applications were made in a hood containing a removable belt and fixed spray nozzle. For passage through the spray hood, one pot of each specie (pre-emergence phase) was placed on the rear half of the flat. Treatments were removed to the greenhouse after spraying. Watering during the observation period was done only by sub-irrigation.
(§8) Two weeks after treatment, pre- and post-emergence injury or control was visually rated, and the results were as shown in the following tables. Pre-emergence data are provided in TABLE III and post-emergence data are provided in TABLE IV, for compounds having the formula illustrated in TABLE I. Correspondingly, pre-emergence and post-emergence data, respectively, are set forth in TABLES V AND VI, for compounds having the formula illustrated in TABLE II.

Crabgrass (CG) [2] = test: Post-emergence herbicide test, crabgrass; format: in vivo, Digitaria sanguinalis; settings: two weeks
Protocol: (§9) Crabgrass (CG)--Digitaria sanguinalis
as §2, §3, §4
(§10) Formulations for spray applications were prepared in 50 ml volumes with the following three components: […]
as §7, §8

Turnip (TP) [3] = test: Pre-emergence herbicide test, turnip; format: in vivo, Brassica sp.; settings: two weeks
Protocol: (§11) Turnip (TP)--Brassica sp.
as §2, §4, §10, §7, §8

Turnip (TP) [4] = test: Post-emergence herbicide test, turnip; format: in vivo, Brassica sp.; settings: two weeks
Protocol: as §11, §2, §3
Pigweed and turnips: 1 or 2 true leaves above visible cotyledons.
as §4, §10, §7, §8

Bean (BN) = test: Post-emergence herbicide test, bean; format: in vivo, Phaseolus vulgaris var. Black Valentine; settings: two weeks
Protocol: Bean (BN)--Phaseolus vulgaris var. Black Valentine
as §2, §3
Beans: primary leaves expanded, growing point at primary leaf nodes.
as §4, §5, §6, §7, §8

Crabgrass (CG) [5] = test: Pre-emergence herbicide test, crabgrass; format: in vivo, Digitaria sanguinalis; settings: two weeks
Protocol: as §9, §2, §4, §5, §6, §7, §8

Cotton (CT) [6] = test: Pre-emergence herbicide test, cotton; format: in vivo, Gossypium hirsutum var. DPL smooth leaf; settings: Gossypium hirsutum, pre-emergence, 336 h, 4 lb/acre, two weeks
Protocol: as §1, §2
Compounds were tested at rates of application equivalent to 8 lbs. of actual compound per acre in a spray volume of 38 gallons per acre. Spray hood constants required to deliver the above volume are as follows:
as §5, §6, §7, §8

NC(=O)Nc1nnc(C(F)(F)F)s1 [Example 70]
POST-EMERGENCE ACTIVITY, % CONTROL (Cotton (CT) [1]; 5 lb/acre): 20%
POST-EMERGENCE ACTIVITY, % CONTROL (Cotton (CT) [1]; 10 lb/acre): 20%
POST-EMERGENCE ACTIVITY, % CONTROL (Crabgrass (CG) [2]; 5 lb/acre): 20%
POST-EMERGENCE ACTIVITY, % CONTROL (Crabgrass (CG) [2]; 10 lb/acre): 20%
PRE-EMERGENCE ACTIVITY, % CONTROL (Turnip (TP) [3]; 5 lb/acre): 10%
PRE-EMERGENCE ACTIVITY, % CONTROL (Turnip (TP) [3]; 10 lb/acre): 10%
POST-EMERGENCE ACTIVITY, % CONTROL (Turnip (TP) [4]; 5 lb/acre): 80%
POST-EMERGENCE ACTIVITY, % CONTROL (Turnip (TP) [4]; 10 lb/acre): 80%
POST-EMERGENCE ACTIVITY, % CONTROL (Bean (BN); 5 lb/acre): 50%
POST-EMERGENCE ACTIVITY, % CONTROL (Bean (BN); 10 lb/acre): 50%
PRE-EMERGENCE ACTIVITY, % CONTROL (Crabgrass (CG) [5]; 5 lb/acre): 10%
PRE-EMERGENCE ACTIVITY, % CONTROL (Crabgrass (CG) [5]; 10 lb/acre): 10%

CNC(=O)Nc1nnc(-c2cccc(C(F)(F)F)c2)s1 [Example 73]
pest or weed control at 4483.4 g/ha (Crabgrass (CG) [2]; Digitaria sanguinalis, post-emergence, 336 h, 4 lb/acre): 80%
pest or weed control at 4483.4 g/ha (Cotton (CT) [6]): 10%

CCSc1nnc(N(C)C(=O)NC)s1 [Example 89]
pest or weed control at 560.425 g/ha (Bean (BN); Phaseolus vulgaris, post-emergence, 336 h, 0.5 lb/acre): 100%
